Earlier results in patent US8524861B2, “Treatment of bacterial infections” (priority 2004, dated 2013).
Entries after “also recorded” stand apart in the source; their conditions may differ.

System: bacteria
Conditions: Peptides, 21: 327-330 (2000); cited from earlier work

Substance | Antibacterial activity reported by Azuma et al., in words
apoE134-159: Azuma's shorter apoE peptides, label printed for both a 22 and a 26 amino acid peptide (RVRLASHLRKLRKRLLRDADDLQKRL; UniProt P02649 152-177, looked up, fragment) | very low antibacterial activity; also recorded: greatly reduced antibacterial activity
apoE134-155: Azuma's shorter apoE peptide, stated as 18 amino acids in length (RVRLASHLRKLRKRLLRDADDL; UniProt P02649 152-173, looked up, fragment) | no activity at all
